Laboratory results taken from patent US20180344680A1, “COMPOSITIONS AND METHODS FOR TREATMENT, AMELIORATION, AND PREVENTION OF DIABETES-RELATED SKIN ULCERS” (THE ARIZONA BOARD OF REGENTS ON BEHALF OF THE UNIVERSITY OF …, priority 2015, published 2018).
“Also recorded” adds a separate entry of the source.

Columns and labels:
[1] = Body weight and blood glucose in STZ-induced diabetic mice; type: in vivo, mouse; conditions: diabetic Nrf2+/+ mice; 12.5 mg/kg SF or 50 mg/kg CA intraperitoneally every other day; vs untreated STZ
Method: Diabetes mouse model and treatments. […] Briefly, three weeks after STZ injections, fasting glucose levels (FGL, 4 h fast) were measured using the AlphaTRAK system (Abbott Laboratory, North Chicago, Ill.) and mice with a FGL higher than or equal to 250 mg/dL were considered diabetic and included in the study (see, e.g., FIG. 2A and FIG. 3A for a detailed timeline). The mice (n=5-8) were then allocated randomly to each of the indicated treatment groups and received corn oil (control), 12.5 mg/kg SF or 50 mg/kg CA intraperitoneally every two days until skin tissues were harvested.
After induction of diabetes using STZ, diabetic Nrf2^+/+ mice were intraperitoneally injected with corn oil (vehicle control), 12.5 mg/kg SF, or 50 mg/kg CA every other day for 1 week, then the wound surgery was performed and the treatment continued for 2 more weeks (FIG. 3A).

[2] = system: NRF2 pathway; assay: Immunoblot and IHC of NRF2 and its target genes in wound skin tissues of STZ mice; type: in vivo, mouse; conditions: 12.5 mg/kg SF or 50 mg/kg CA i.p. every other day; for protein expression of NRF2 and its target genes HO-1, AKR1C1, and NQO1 (immunoblot): diabetic mouse skin tissue lysates; for NRF2 and HO-1 level by IHC: wound skin tissues of diabetic mice
Method: Diabetes mouse model and treatments. […] The STZ-induced diabetic model was previously described (see, e.g., Zheng H, et al., Diabetes 60:3055-3066, 2011) and only 8 week old male mice were included in this study. Briefly, three weeks after STZ injections, fasting glucose levels (FGL, 4 h fast) were measured using the AlphaTRAK system (Abbott Laboratory, North Chicago, Ill.) and mice with a FGL higher than or equal to 250 mg/dL were considered diabetic and included in the study (see, e.g., FIG. 2A and FIG. 3A for a detailed timeline). The mice (n=5-8) were then allocated randomly to each of the indicated treatment groups and received corn oil (control), 12.5 mg/kg SF or 50 mg/kg CA intraperitoneally every two days until skin tissues were harvested. One week after the treatments, the mice were anesthetized, their backs were shaved and cleaned. Two wounds were made with a sterile 6 mm skin biopsy punch (Health link, Jacksonville, Fla.) and covered with 3M Tegaderm pads. […] The tissues were collected using an 8 mm skin biopsy punch; one half was fixed in 10% buffered formalin and embedded in paraffin while the other half was used for protein extraction. […] Wounds and tissue collection were performed as described above.
Immunohistochemistry (IHC), immunoblot analyses, TGF-β1 immunoassay, and gelatin zymography. […] For IHC, antigen retrieval was performed by boiling in sodium citrate buffer (10 mM, pH 6.0) or EDTA buffer (1 mM, pH 8.0). After blocking endogenous peroxidase and non-specific binding, tissue sections were incubated with the indicated primary antibodies. Staining was performed using the Envision system HRP-DAB kit (DAKO North America, CA) according to the manufacturer's instructions.
For protein detection of mouse skin tissues were homogenized in lysis buffer (50 mM Tris-HCl buffer pH 7.4, 100 mM DTT, 2% SDS, 10% glycerol). Protein concentration was measured using Quant-iT Protein Assay (Invitrogen) and 150 μg of protein were resolved by SDS-PAGE and immunoblotting analyses with the indicated antibodies.
To explore the feasibility of pharmacologic activation of NRF2 in facilitating diabetic wound healing, sulforaphane (SF) and cinnamaldehyde (CA), two well-studied NRF2 activators, were tested for their ability to activate the NRF2-mediated antioxidant response in mouse skin tissues. After induction of diabetes using STZ, diabetic Nrf2^+/+ mice were intraperitoneally injected with corn oil (vehicle control), 12.5 mg/kg SF, or 50 mg/kg CA every other day for 1 week, then the wound surgery was performed and the treatment continued for 2 more weeks (FIG. 3A).

[3] = system: wounds of STZ-induced diabetic Nrf2+/+ mice; assay: Wound closure in STZ-induced diabetic mouse model; type: in vivo; conditions: for wound closure / diameter of granulation tissue between the flanking hair follicles: STZ mice; for wound closure: 12.5 mg/kg SF or 50 mg/kg CA i.p. every other day, up to 14 days after wound surgery, vs untreated STZ; for diameter of granulation tissue between the flanking hair follicles: day 14 post-surgery, histological examination
Text: Diabetes mouse model and treatments. Nrf2^+/+ and Nrf2^-/- C57BL/6 mice were described previously (see, e.g., Jiang T, et al., Diabetes 59:850-860, 2010) and were housed and handled in accordance with the University of Arizona Institutional Animal Care policies. The STZ-induced diabetic model was previously described (see, e.g., Zheng H, et al., Diabetes 60:3055-3066, 2011) and only 8 week old male mice were included in this study. Briefly, three weeks after STZ injections, fasting glucose levels (FGL, 4 h fast) were measured using the AlphaTRAK system (Abbott Laboratory, North Chicago, Ill.) and mice with a FGL higher than or equal to 250 mg/dL were considered diabetic and included in the study (see, e.g., FIG. 2A and FIG. 3A for a detailed timeline). The mice (n=5-8) were then allocated randomly to each of the indicated treatment groups and received corn oil (control), 12.5 mg/kg SF or 50 mg/kg CA intraperitoneally every two days until skin tissues were harvested. One week after the treatments, the mice were anesthetized, their backs were shaved and cleaned. Two wounds were made with a sterile 6 mm skin biopsy punch (Health link, Jacksonville, Fla.) and covered with 3M Tegaderm pads. The wounds were photographed using an in vivo imaging system and an infrared integrated system ([…], Northampton, UK) for 14 days. Gross wound closure was quantified by ImageJ software, and wound healing was expressed as the percentage of the original wound area that had healed. The tissues were collected using an 8 mm skin biopsy punch; one half was fixed in 10% buffered formalin and embedded in paraffin while the other half was used for protein extraction. For the experiments in non-diabetic mice (FIG. 9), mice were injected with sodium citrate buffer and randomly allocated to the treatment groups (n=3-5). Wounds and tissue collection were performed as described above.

[4] = system: wounds of non-diabetic Nrf2+/+ mice; assay: Wound closure in non-diabetic mice; type: in vivo, mouse; conditions: non-diabetic Nrf2+/+ mice treated with SF or CA vs corn oil; up to 14 days
Text: Diabetes mouse model and treatments. Nrf2^+/+ and Nrf2^-/- C57BL/6 mice were described previously (see, e.g., Jiang T, et al., Diabetes 59:850-860, 2010) and were housed and handled in accordance with the University of Arizona Institutional Animal Care policies. The STZ-induced diabetic model was previously described (see, e.g., Zheng H, et al., Diabetes 60:3055-3066, 2011) and only 8 week old male mice were included in this study. Briefly, three weeks after STZ injections, fasting glucose levels (FGL, 4 h fast) were measured using the AlphaTRAK system (Abbott Laboratory, North Chicago, Ill.) and mice with a FGL higher than or equal to 250 mg/dL were considered diabetic and included in the study (see, e.g., FIG. 2A and FIG. 3A for a detailed timeline). The mice (n=5-8) were then allocated randomly to each of the indicated treatment groups and received corn oil (control), 12.5 mg/kg SF or 50 mg/kg CA intraperitoneally every two days until skin tissues were harvested. One week after the treatments, the mice were anesthetized, their backs were shaved and cleaned. Two wounds were made with a sterile 6 mm skin biopsy punch (Health link, Jacksonville, Fla.) and covered with 3M Tegaderm pads. […] Gross wound closure was quantified by ImageJ software, and wound healing was expressed as the percentage of the original wound area that had healed. […]

[5] = Digital infrared thermal imaging of wounds in STZ mice; type: in vivo, mouse; conditions: exaggerated gradient vs Con group
Method: Diabetes mouse model and treatments. […] Briefly, three weeks after STZ injections, fasting glucose levels (FGL, 4 h fast) were measured using the AlphaTRAK system (Abbott Laboratory, North Chicago, Ill.) and mice with a FGL higher than or equal to 250 mg/dL were considered diabetic and included in the study (see, e.g., FIG. 2A and FIG. 3A for a detailed timeline). The mice (n=5-8) were then allocated randomly to each of the indicated treatment groups and received corn oil (control), 12.5 mg/kg SF or 50 mg/kg CA intraperitoneally every two days until skin tissues were harvested. One week after the treatments, the mice were anesthetized, their backs were shaved and cleaned. Two wounds were made with a sterile 6 mm skin biopsy punch (Health link, Jacksonville, Fla.) and covered with 3M Tegaderm pads. The wounds were photographed using an in vivo imaging system and an infrared integrated system (IRISYS, Northampton, UK) for 14 days. Gross wound closure was quantified by ImageJ software, and wound healing was expressed as the percentage of the original wound area that had healed. The tissues were collected using an 8 mm skin biopsy punch; one half was fixed in 10% buffered formalin and embedded in paraffin while the other half was used for protein extraction. […]

[6] = system: NRF2 pathway; assay: Immunoblot of NRF2 pathway in HaCaT cells under high glucose; type: cell-based, human; conditions: HaCaT in high glucose (HG); 5 μmol/L SF or 20 μmol/L CA; 48 h
Method: Human immortalized keratinocytes HaCaT were obtained from the Arizona Cancer Center (see, e.g., Boukamp P, et al., J Cell Biol 106:761-771, 1988). Cells were grown in Dulbecco's modified Eagle's medium (DMEM) containing low glucose (LG, 5.5 mmol/L) and 10% fetal bovine serum (FBS) in an incubator at 37° C. with 5% CO2. For the experiments, the cells were starved in serum-free LG DMEM for 24 h, then either maintained in LG DMEM or switched to high glucose (HG, 25 mmol/L) DMEM for 2 days (see, e.g., Zheng H, et al., Diabetes 60:3055-3066, 2011; Lan C C, et al., Br J Dermatol 159:1103-1115, 2008). For the treatments, the cells were dosed with 5 μmol/L SF or 20 μmol/L CA.
siRNA transfections. HaCaT cells were transfected with either a non-specific, control small interfering RNA (Con-siRNA, #1027281, Qiagen, Valencia, Calif.) or an NRF2-specific siRNA (#S100657937) using the HiPerfect transfection reagent (Qiagen) according to the manufacturer's instructions. Briefly, cells were maintained in LG or HG DMEM for 2 days and then transfected with either control or NRF2 siRNA for migration, proliferation, and apoptosis experiments. For the ROS detection, cells were maintained in LG DMEM and transfected with either control or NRF2 siRNA; 24 h later, the cells were switched to HG DMEM and treated as indicated.
Cultured HaCaT cells were harvested in 1× sample buffer (50 mM Tris-HCl pH 6.8, 2% sodium dodecyl sulfate (SDS), 10% glycerol, 100 mM dithiothreitol (DTT), 0.1% bromophenol blue), boiled and sonicated. Total cell lysates were resolved by SDS-PAGE and subjected to immunoblot analyses with the indicated antibodies. For the detection of the secreted proteins TGF-β1 and MMP9, cells were incubated 24 h in serum-free media before harvesting the medium. TGF-β1 was measured using the Quantikine human TGF-β1 immunoassay kit (R&D systems; Minneapolis, Minn.) according to the manufacturer's instructions. The absorbance at 450 nm was measured using a Synergy 2 microplate reader (BioTek, Winooski, Vt.) and the amount of TGF-β1 was calculated by standard curve. MMP9 activity was evaluated by gelatin zymography as described elsewhere (see, e.g., Toth M, et al., Methods Mol Biol 878:121-135, 2012; Zhu P, et al., Exp Dermatol 21:123-129, 2012). Briefly, the supernatant was concentrated using Amicon Ultra-0.5 mL centrifugal filters (Merck Milipore, Darmstadt, Germany) (10 kDa cut off), mixed with non-reducing sample buffer and subjected to electrophoresis in 10% polyacrylamide-0.1% w/v gelatin gels. The gels were then washed in 2.5% Triton X-100 to remove SDS and incubated with developing buffer (50 mM Tris-HCl, pH 7.6, 1 μM ZnCl2 and 5 mM CaCl2) at 37° C. for 36 h. Gels were subsequently stained with 0.2% Coomassie blue and were analyzed with ImageJ.

O=CC=Cc1ccccc1 [CA, Cinnamaldehyde]
blood glucose levels [1]: failed to decrease blood glucose levels
body weight [1]: reversed the body weight loss during the initial phase of diabetes
protein expression of NRF2 and its target genes HO-1, AKR1C1, and NQO1 (immunoblot) [2]: upregulated
NRF2 and HO-1 level by IHC [2]: high level
wound closure [3]: accelerated wound closure
diameter of granulation tissue between the flanking hair follicles [3]: markedly reduced
wound closure [4]: No statistically significant differences; also recorded: do not show accelerated wound closure
temperature gradients (ΔT) between wound area and surrounding healthy tissue [5]: abolished this effect
protein levels of HO-1, AKR1C1, and NQO1 [6]: further induced
protein levels of NRF2 [6]: further NRF2 induction

C[S@@+]([O-])CCCCN=C=S [SF, L-sulforaphane]
blood glucose levels [1]: failed to decrease blood glucose levels
body weight [1]: reversed the body weight loss during the initial phase of diabetes
protein expression of NRF2 and its target genes HO-1, AKR1C1, and NQO1 (immunoblot) [2]: upregulated
NRF2 and HO-1 level by IHC [2]: high level
wound closure [3]: accelerated wound closure
diameter of granulation tissue between the flanking hair follicles [3]: markedly reduced
wound closure compared with non-diabetic Con mice ([3]; STZ+SF mice, during the first 7 days): even faster than that of the Con mice
wound closure [4]: No statistically significant differences; also recorded: do not show accelerated wound closure
temperature gradients (ΔT) between wound area and surrounding healthy tissue [5]: abolished this effect
protein levels of HO-1, AKR1C1, and NQO1 [6]: further induced
protein levels of NRF2 [6]: further NRF2 induction
